Test results reported in US10080739B2, “Aryl imidazoles and their use as anti-cancer agents” (Aptose Biosciences Inc., priority 2003, dated 2018).
Entries after “also recorded” stand apart in the source; their conditions may differ.

Legend:
NEK2 = biological target: T1, NEK2 (Homo sapiens, UniProt P51955); assay: kinase profiler, NEK2; format: biochemical; details: 10 μM compound, 100 μM ATP, mean of % control
T1 construct: purchased Upstate Biotechnologies (kinase profiler service)
Procedure: (§1) Compound 45 was tested for its ability to function as a kinase inhibitor using the kinase profiler service from Upstate Biotechnologies. The general protocol employed is as follows: recombinant kinases were incubated with specific substrates, 10 mM MgAcetate, and [γ-^33P-ATP]. The reaction was initiated by the addition of MgATP mix. After incubation at room temperature for 40 minutes, the reaction was stopped by the addition of 5 μl of a 3% phosphoric acid solution. 10 μl of the reaction was then spotted on to a P30 filtermat and washed 3 times for 5 min. in 75 mM phosphoric acid and once in methanol prior to drying and scintillation counting. Each reaction was performed in duplicate with 100 μM ATP −/+10 μM compound 45. Results are presented in Table IV and are expressed as the mean of % control (no compound). PI 3-kinase-γ (PI3K-γ) activity was determined with the PIProfiler™ assay, which measures the binding of the GRP1 pleckstrin homology (PH) domain to PIP3, the product of PI3K acting on its physiological substrate PIP2.

CDK7/cyclinH/MAT1 = biological target: T2, CDK7/cyclinH/MAT1 (Homo sapiens, UniProt P50613); assay: kinase profiler, CDK7/cyclinH/MAT1; format: biochemical; details: 10 μM compound, 100 μM ATP, mean of % control
T2 construct: purchased Upstate Biotechnologies (kinase profiler service)
T2 sequence (P50613 whole entry): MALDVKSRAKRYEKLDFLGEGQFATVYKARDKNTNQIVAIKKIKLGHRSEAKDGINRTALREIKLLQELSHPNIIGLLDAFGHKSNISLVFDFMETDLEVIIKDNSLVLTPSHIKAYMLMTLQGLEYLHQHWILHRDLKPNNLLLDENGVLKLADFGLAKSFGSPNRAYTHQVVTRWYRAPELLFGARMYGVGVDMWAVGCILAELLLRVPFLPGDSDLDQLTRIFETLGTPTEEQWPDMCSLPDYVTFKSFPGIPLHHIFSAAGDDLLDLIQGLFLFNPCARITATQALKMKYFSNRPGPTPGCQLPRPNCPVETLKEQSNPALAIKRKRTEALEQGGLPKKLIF
T2 sequence (P51946 whole entry partner): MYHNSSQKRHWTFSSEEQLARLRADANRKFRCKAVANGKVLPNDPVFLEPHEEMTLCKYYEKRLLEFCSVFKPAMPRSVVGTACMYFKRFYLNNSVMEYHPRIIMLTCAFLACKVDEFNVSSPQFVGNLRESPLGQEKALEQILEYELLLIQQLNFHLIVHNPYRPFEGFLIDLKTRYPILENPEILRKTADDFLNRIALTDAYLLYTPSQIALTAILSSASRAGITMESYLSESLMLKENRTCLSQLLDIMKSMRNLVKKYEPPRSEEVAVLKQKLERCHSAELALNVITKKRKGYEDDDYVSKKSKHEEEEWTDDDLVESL
T2 sequence (P51948 whole entry partner): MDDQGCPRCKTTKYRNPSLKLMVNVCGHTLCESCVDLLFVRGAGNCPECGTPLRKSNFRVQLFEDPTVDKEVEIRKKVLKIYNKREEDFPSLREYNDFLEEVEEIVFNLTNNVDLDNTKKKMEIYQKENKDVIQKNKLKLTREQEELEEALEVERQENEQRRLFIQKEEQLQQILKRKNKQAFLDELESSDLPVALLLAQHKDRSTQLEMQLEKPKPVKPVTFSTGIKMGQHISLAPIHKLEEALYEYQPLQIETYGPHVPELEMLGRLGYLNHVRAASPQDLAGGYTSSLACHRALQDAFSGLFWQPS
Procedure: as §1

SAPK2b = biological target: T3, SAPK2b (Homo sapiens, UniProt Q15759); assay: kinase profiler, SAPK2b; format: biochemical; details: 10 μM compound, 100 μM ATP, mean of % control
T3 construct: purchased Upstate Biotechnologies (kinase profiler service)
Procedure: as §1

PKCδ = biological target: T4, PKCδ (Homo sapiens, UniProt Q05655); assay: kinase profiler, PKCδ; format: biochemical; details: 10 μM compound, 100 μM ATP, mean of % control
T4 construct: purchased Upstate Biotechnologies (kinase profiler service)
T4 sequence (Q05655 whole entry): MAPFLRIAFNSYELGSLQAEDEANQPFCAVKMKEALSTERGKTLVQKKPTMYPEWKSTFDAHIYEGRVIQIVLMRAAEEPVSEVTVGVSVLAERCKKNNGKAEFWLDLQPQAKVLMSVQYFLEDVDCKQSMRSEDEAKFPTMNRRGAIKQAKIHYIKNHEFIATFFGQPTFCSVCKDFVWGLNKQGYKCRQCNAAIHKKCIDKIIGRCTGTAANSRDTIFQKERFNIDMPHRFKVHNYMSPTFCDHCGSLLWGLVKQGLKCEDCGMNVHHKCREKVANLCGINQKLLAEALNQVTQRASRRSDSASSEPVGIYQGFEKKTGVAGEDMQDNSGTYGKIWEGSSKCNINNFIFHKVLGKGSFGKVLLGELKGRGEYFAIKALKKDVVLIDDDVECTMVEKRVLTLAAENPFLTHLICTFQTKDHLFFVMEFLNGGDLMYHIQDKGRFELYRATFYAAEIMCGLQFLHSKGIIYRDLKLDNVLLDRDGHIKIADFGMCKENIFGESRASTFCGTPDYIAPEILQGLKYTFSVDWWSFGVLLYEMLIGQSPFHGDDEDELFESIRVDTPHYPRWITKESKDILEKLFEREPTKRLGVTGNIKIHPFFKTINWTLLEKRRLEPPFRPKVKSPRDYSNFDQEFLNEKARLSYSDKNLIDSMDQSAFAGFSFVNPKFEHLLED
Procedure: as §1

Lyn = biological target: T5, Lyn (Homo sapiens, UniProt P07948); assay: kinase profiler, Lyn; format: biochemical; details: 10 μM compound, 100 μM ATP, mean of % control
T5 construct: purchased Upstate Biotechnologies (kinase profiler service)
T5 sequence (P07948 whole entry): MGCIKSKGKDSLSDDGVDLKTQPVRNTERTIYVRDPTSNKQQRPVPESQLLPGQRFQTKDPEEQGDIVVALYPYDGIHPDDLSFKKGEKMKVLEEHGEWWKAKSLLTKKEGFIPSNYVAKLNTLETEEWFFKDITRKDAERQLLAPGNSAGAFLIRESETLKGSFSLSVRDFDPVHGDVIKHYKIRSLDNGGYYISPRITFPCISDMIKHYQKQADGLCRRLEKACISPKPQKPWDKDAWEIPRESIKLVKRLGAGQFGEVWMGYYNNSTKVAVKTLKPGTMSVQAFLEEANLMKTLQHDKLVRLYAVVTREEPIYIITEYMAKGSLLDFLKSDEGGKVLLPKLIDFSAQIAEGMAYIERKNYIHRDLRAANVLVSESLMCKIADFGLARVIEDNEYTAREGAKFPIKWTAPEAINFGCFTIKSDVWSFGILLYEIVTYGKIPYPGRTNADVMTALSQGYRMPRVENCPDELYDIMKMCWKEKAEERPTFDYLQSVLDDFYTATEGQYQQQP
Procedure: as §1

SGK = biological target: T6, SGK (Homo sapiens, UniProt O00141); assay: kinase profiler, SGK; format: biochemical; details: 10 μM compound, 100 μM ATP, mean of % control
T6 construct: purchased Upstate Biotechnologies (kinase profiler service)
Procedure: as §1

CHK1 = biological target: T7, CHK1 (Homo sapiens, UniProt O14757); assay: kinase profiler, CHK1; format: biochemical; details: 10 μM compound, 100 μM ATP, mean of % control
T7 construct: purchased Upstate Biotechnologies (kinase profiler service)
Procedure: as §1

BRK = biological target: T8, BRK (Homo sapiens, UniProt Q13882); assay: kinase profiler, BRK; format: biochemical; details: 10 μM compound, 100 μM ATP, mean of % control
T8 construct: purchased Upstate Biotechnologies (kinase profiler service)
Procedure: as §1

Pim-1 = biological target: T9, Pim-1 (Homo sapiens, UniProt P11309); assay: kinase profiler, Pim-1; format: biochemical; details: 10 μM compound, 100 μM ATP, mean of % control
T9 construct: purchased Upstate Biotechnologies (kinase profiler service)
T9 sequence (P11309 whole entry): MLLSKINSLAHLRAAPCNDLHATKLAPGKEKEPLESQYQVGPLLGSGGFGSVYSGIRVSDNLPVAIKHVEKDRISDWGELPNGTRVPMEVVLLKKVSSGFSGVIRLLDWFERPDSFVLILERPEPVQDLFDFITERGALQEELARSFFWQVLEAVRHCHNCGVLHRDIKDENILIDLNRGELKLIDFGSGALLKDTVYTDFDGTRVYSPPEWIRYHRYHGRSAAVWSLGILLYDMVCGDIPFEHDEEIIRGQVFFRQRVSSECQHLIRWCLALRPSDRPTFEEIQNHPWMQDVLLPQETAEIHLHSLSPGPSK
Procedure: as §1

PRK2 = biological target: T10, PRK2 (Homo sapiens, UniProt Q16513); assay: kinase profiler, PRK2; format: biochemical; details: 10 μM compound, 100 μM ATP, mean of % control
T10 construct: purchased Upstate Biotechnologies (kinase profiler service)
T10 sequence (Q16513 whole entry): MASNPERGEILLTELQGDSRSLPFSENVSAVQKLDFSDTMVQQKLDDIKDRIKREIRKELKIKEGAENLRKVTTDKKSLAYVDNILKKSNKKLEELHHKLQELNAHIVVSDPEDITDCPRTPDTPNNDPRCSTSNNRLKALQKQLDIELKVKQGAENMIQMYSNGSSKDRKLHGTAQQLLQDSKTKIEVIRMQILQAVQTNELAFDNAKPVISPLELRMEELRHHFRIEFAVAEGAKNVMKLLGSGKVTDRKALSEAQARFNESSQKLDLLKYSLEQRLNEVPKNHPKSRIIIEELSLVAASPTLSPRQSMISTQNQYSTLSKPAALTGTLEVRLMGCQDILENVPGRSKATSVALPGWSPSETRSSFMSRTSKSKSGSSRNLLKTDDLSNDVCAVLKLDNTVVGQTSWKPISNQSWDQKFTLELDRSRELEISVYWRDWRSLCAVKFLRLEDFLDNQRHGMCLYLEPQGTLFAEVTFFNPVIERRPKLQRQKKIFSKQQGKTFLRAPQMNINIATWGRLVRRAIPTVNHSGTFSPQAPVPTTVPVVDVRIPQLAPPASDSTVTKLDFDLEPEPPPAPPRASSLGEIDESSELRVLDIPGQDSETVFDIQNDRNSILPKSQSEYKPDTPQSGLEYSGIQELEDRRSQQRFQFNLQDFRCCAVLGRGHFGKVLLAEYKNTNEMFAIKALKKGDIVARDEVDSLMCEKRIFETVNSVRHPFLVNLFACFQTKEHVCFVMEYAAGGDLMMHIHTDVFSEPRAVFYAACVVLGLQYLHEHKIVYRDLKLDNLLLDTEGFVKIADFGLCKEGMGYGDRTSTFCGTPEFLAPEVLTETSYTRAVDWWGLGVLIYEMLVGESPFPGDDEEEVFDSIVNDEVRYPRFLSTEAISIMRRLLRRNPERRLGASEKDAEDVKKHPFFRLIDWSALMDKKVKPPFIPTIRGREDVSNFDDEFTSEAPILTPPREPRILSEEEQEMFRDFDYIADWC
Procedure: as §1

EphA2 = biological target: T11, EphA2 (Homo sapiens, UniProt P29317); assay: kinase profiler, EphA2; format: biochemical; details: 10 μM compound, 100 μM ATP, mean of % control
T11 construct: purchased Upstate Biotechnologies (kinase profiler service)
Procedure: as §1

CDK1/cyclinB = biological target: T12, CDK1/cyclinB (Homo sapiens, UniProt P06493); assay: kinase profiler, CDK1/cyclinB; format: biochemical; details: 10 μM compound, 100 μM ATP, mean of % control
T12 construct: purchased Upstate Biotechnologies (kinase profiler service)
Procedure: as §1

PKCα = biological target: T13, PKCα (Homo sapiens, UniProt P17252); assay: kinase profiler, PKCα; format: biochemical; details: 10 μM compound, 100 μM ATP, mean of % control
T13 construct: purchased Upstate Biotechnologies (kinase profiler service)
Procedure: as §1

MAPKAP-K2 = biological target: T14, MAPKAP-K2 (Homo sapiens, UniProt P49137); assay: kinase profiler, MAPKAP-K2; format: biochemical; details: 10 μM compound, 100 μM ATP, mean of % control
T14 construct: purchased Upstate Biotechnologies (kinase profiler service)
T14 sequence (P49137 whole entry): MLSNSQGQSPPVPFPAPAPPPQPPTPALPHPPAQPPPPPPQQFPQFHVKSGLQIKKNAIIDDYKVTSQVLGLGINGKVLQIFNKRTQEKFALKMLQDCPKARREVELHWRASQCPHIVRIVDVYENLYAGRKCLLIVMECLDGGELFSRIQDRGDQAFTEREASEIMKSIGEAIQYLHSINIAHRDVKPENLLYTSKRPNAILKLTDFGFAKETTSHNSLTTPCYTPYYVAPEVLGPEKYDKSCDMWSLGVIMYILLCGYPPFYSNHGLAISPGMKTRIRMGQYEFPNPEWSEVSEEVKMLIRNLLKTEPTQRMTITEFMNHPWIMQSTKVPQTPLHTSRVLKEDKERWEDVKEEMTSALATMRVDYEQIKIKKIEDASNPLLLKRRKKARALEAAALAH
Procedure: as §1

[1] = tested on: A498 renal carcinoma cells; assay: morphological changes (vacuoles), A498; format: cell-based, human; details: treatment for 24 hours
Excerpt: These vacuoles are not formed in DMSO- or doxorubicin-treated cells. Moreover, the nuclear membrane is no longer evident in the phase-contrast images of cells treated with compound 45, even though the nucleus is still intact, as shown by DAPI staining.

CDK3/cyclinE = biological target: T15, CDK3/cyclinE (Homo sapiens, UniProt Q00526); assay: kinase profiler, CDK3/cyclinE; format: biochemical; details: 10 μM compound, 100 μM ATP, mean of % control
T15 construct: purchased Upstate Biotechnologies (kinase profiler service)
Procedure: as §1

PKA = biological target: T16, PKA (Homo sapiens, UniProt P17612); assay: kinase profiler, PKA; format: biochemical; details: 10 μM compound, 100 μM ATP, mean of % control
T16 construct: purchased Upstate Biotechnologies (kinase profiler service)
Procedure: as §1

Fes = biological target: T17, Fes (Homo sapiens, UniProt P07332); assay: kinase profiler, Fes; format: biochemical; details: 10 μM compound, 100 μM ATP, mean of % control
T17 construct: purchased Upstate Biotechnologies (kinase profiler service)
Procedure: as §1

MSK1 = biological target: T18, MSK1 (Homo sapiens, UniProt O75582); assay: kinase profiler, MSK1; format: biochemical; details: 10 μM compound, 100 μM ATP, mean of % control
T18 construct: purchased Upstate Biotechnologies (kinase profiler service)
Procedure: as §1

MKK6 = biological target: T19, MKK6 (Homo sapiens, UniProt P52564); assay: kinase profiler, MKK6; format: biochemical; details: 10 μM compound, 100 μM ATP, mean of % control
T19 construct: purchased Upstate Biotechnologies (kinase profiler service)
T19 sequence (P52564 whole entry): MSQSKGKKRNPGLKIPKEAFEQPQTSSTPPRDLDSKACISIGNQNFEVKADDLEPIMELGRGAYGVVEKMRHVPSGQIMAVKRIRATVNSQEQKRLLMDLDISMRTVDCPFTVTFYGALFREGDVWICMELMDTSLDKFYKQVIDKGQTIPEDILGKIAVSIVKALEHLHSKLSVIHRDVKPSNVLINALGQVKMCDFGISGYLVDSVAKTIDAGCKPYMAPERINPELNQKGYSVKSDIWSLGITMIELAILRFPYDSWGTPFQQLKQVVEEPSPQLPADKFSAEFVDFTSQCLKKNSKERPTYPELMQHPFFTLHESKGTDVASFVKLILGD
Procedure: as §1

Yes = biological target: T20, Yes (Homo sapiens, UniProt P07947); assay: kinase profiler, Yes; format: biochemical; details: 10 μM compound, 100 μM ATP, mean of % control
T20 construct: purchased Upstate Biotechnologies (kinase profiler service)
Procedure: as §1

SAPK2a = biological target: T21, SAPK2a (Homo sapiens, UniProt Q16539); assay: kinase profiler, SAPK2a; format: biochemical; details: 10 μM compound, 100 μM ATP, mean of % control
T21 construct: purchased Upstate Biotechnologies (kinase profiler service)
T21 sequence (Q16539 whole entry): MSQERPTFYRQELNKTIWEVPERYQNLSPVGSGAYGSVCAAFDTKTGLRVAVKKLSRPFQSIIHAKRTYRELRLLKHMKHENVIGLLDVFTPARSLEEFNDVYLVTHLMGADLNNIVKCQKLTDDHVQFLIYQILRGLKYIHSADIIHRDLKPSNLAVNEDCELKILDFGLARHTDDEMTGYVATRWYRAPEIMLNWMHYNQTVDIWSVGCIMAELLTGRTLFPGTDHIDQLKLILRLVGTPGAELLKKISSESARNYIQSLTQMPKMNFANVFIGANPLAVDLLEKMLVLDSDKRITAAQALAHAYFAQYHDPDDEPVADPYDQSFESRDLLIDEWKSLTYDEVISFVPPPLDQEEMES
Procedure: as §1

CDK2/cyclinA = biological target: T22, CDK2/cyclinA (Homo sapiens, UniProt P24941); assay: kinase profiler, CDK2/cyclinA; format: biochemical; details: 10 μM compound, 100 μM ATP, mean of % control
T22 construct: purchased Upstate Biotechnologies (kinase profiler service)
Procedure: as §1

Ax1 = biological target: T23, Ax1 (Homo sapiens, UniProt P30530); assay: kinase profiler, Ax1; format: biochemical; details: 10 μM compound, 100 μM ATP, mean of % control
T23 construct: purchased Upstate Biotechnologies (kinase profiler service)
Procedure: as §1

IKKα = biological target: T24, IKKα (Homo sapiens, UniProt O15111); assay: kinase profiler, IKKα; format: biochemical; details: 10 μM compound, 100 μM ATP, mean of % control
T24 construct: purchased Upstate Biotechnologies (kinase profiler service)
Procedure: as §1

PAR-1Bα = biological target: T25, PAR-1Bα (Homo sapiens, UniProt Q7KZI7); assay: kinase profiler, PAR-1Bα; format: biochemical; details: 10 μM compound, 100 μM ATP, mean of % control
T25 construct: purchased Upstate Biotechnologies (kinase profiler service)
Procedure: as §1

ALK = biological target: T26, ALK (Homo sapiens, UniProt Q9UM73); assay: kinase profiler, ALK; format: biochemical; details: 10 μM compound, 100 μM ATP, mean of % control
T26 construct: purchased Upstate Biotechnologies (kinase profiler service)
Procedure: as §1

[2] = tested on: HT-29 colon adenocarcinoma cells; assay: cell cycle analysis by flow cytometry; format: cell-based, human; details: HT-29 cells starved 3 days, 15 μM or 25 μM for 24 or 48 hours, 10% serum
Procedure: The effect of treatment with compound 45 on cell cycle progression in HT-29 colon adenocarcinoma cells was examined by flow cytometry (FIG. 22). Values were determined by gate analysis of flow cytometric plots and are presented in FIG. 22 as a percentage of the total cell population, after eliminating doubles. Apoptotic events inferred by the surface area preceding G1 phase. Cells were starved for 3 days, and treated with 15 μM or 25 μM compound 45 for 24 or 48 hours in the presence of 10% serum, followed by flow cytometric analysis.

PKCζ = biological target: T27, PKCζ (Homo sapiens, UniProt Q05513); assay: kinase profiler, PKCζ; format: biochemical; details: 10 μM compound, 100 μM ATP, mean of % control
T27 construct: purchased Upstate Biotechnologies (kinase profiler service)
Procedure: as §1

SAPK3 = biological target: T28, SAPK3 (Homo sapiens, UniProt P53778); assay: kinase profiler, SAPK3; format: biochemical; details: 10 μM compound, 100 μM ATP, mean of % control
T28 construct: purchased Upstate Biotechnologies (kinase profiler service)
T28 sequence (P53778 whole entry): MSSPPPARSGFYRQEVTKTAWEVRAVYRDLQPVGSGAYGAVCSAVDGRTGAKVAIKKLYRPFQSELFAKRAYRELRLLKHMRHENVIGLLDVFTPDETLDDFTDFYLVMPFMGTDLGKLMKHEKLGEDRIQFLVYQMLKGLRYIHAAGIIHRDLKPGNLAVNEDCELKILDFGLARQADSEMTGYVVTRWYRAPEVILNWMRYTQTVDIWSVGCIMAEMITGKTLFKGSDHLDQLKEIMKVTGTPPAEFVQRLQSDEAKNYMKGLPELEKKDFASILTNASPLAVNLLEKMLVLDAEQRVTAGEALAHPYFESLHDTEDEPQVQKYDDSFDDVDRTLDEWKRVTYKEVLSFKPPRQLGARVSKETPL
Procedure: as §1

MST2 = biological target: T29, MST2 (Homo sapiens, UniProt Q13188); assay: kinase profiler, MST2; format: biochemical; details: 10 μM compound, 100 μM ATP, mean of % control
T29 construct: purchased Upstate Biotechnologies (kinase profiler service)
Procedure: as §1

PI 3-kinase-γ (PI3K-γ) = biological target: T30, PI 3-kinase-γ (PI3K-γ) (Homo sapiens, UniProt P48736); assay: PIProfiler assay, PI3K-γ; format: biochemical; details: PI3K[…] (PI3Kγ), 10 μM compound, mean of % control
T30 construct: purchased Upstate Biotechnologies (kinase profiler / PIProfiler service)
Procedure: as §1

Structure (SMILES): Brc1ccc2[nH]cc(-c3nc4c5ccccc5c5ccccc5c4[nH]3)c2c1 [Compound 45]
- activity at 10 µM (NEK2): 90%
- activity at 10 µM (CDK7/cyclinH/MAT1): 95%
- activity at 10 µM (SAPK2b): 80%
- activity at 10 µM (PKCδ): 87%
- activity at 10 µM (Lyn): 81%
- activity at 10 µM (SGK): 89%
- activity at 10 µM (CHK1): 111%
- activity at 10 µM (BRK): 112%
- activity at 10 µM (Pim-1): 70%
- activity at 10 µM (PRK2): 83%
- activity at 10 µM (EphA2): 95%
- activity at 10 µM (CDK1/cyclinB): 156%
- activity at 10 µM (PKCα): 92%
- activity at 10 µM (MAPKAP-K2): 119%
- formation of vacuoles [1]: formation of large vacuoles within the cytoplasm
- activity at 10 µM (CDK3/cyclinE): 107%
- activity at 10 µM (PKA): 83%
- activity at 10 µM (Fes): 99%
- activity at 10 µM (MSK1): 76%
- activity at 10 µM (MKK6): 86%
- activity at 10 µM (Yes): 91%
- activity at 10 µM (SAPK2a): 62%
- activity at 10 µM (CDK2/cyclinA): 95%
- activity at 10 µM (Ax1): 100%
- activity at 10 µM (IKKα): 150%
- activity at 10 µM (PAR-1Bα): 88%
- activity at 10 µM (ALK): 60%
- effect on cell cycle progression [2]: increase of cells in the G1 phase and a decrease in the S and G2/M phases; also recorded: partial arrest in the G0/G1 phase
- activity at 10 µM (PKCζ): 96%
- activity at 10 µM (SAPK3): 54%
- activity at 10 µM (MST2): 77%
- activity at 10 µM (PI 3-kinase-γ (PI3K-γ)): 22%
